EC50, Activity and Kp data for 12 compounds are collected here from ChEMBL document CHEMBL1153220, “Chemical lead optimization of a pan G(q) mAChR M(1), M(3), M(5) positive allosteric modulator (PAM) lead. Part I: Development of the first highly selective M(5) PAM” (Bioorg Med Chem Lett, 2010).

The EC50 is the concentration needed to bring the measured effect to its halfway point.

Chain of Muscarinic acetylcholine receptor M3 (Homo sapiens) (P20309 whole entry, looked up): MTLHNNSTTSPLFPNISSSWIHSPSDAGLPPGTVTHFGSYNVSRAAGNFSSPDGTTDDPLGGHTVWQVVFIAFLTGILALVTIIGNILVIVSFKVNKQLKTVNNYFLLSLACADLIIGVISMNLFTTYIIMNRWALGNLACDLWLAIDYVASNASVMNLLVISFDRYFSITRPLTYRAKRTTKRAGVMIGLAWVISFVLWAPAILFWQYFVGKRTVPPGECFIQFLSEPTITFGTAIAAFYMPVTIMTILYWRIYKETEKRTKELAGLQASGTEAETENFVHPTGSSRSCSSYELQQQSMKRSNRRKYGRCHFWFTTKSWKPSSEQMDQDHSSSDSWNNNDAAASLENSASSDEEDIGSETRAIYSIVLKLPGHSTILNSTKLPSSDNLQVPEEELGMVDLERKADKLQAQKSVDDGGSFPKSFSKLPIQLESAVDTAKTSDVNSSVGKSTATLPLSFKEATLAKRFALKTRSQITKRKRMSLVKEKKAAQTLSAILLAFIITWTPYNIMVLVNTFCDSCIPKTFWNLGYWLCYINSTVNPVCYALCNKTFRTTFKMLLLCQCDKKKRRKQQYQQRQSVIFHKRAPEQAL

For one data set, the target named is T1, Muscarinic acetylcholine receptor M4 (Rattus norvegicus, UniProt P08485).
T1 sequence (P08485 whole entry): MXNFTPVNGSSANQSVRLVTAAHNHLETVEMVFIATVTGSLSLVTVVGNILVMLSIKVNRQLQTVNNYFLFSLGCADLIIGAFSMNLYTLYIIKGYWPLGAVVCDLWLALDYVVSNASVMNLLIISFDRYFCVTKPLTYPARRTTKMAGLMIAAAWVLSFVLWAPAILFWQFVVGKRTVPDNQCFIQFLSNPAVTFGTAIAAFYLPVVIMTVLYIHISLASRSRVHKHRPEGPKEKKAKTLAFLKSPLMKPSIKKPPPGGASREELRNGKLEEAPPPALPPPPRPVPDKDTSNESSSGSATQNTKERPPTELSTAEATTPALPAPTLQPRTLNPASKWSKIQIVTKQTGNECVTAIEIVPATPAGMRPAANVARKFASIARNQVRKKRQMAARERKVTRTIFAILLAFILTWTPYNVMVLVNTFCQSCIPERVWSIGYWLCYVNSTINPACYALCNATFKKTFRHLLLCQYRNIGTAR
Briefly: Agonist activity at rat muscarinic M4 expressed in CHO cells assessed as stimulation of calcium mobilization. Format: functional, cell-based.
Details: not given
In general terms: Calcium flux is commonly read through the fluorescence of an indicator in the cells.
Turning to `O=C1C(=O)N(Cc2ccc(C(F)(F)F)cc2)c2c(Cl)cccc21`, the EC50 is > 10 µM.
For `O=C1C(=O)N(Cc2ccc(Br)cc2)c2ccccc21`, the EC50 was > 30 µM.
Take `COc1ccc(CN2C(=O)C(=O)c3cc(OC(F)(F)F)ccc32)cc1`: the EC50 was > 30 µM.

The target of the next data set is T2, Muscarinic acetylcholine receptor M5 (Homo sapiens, UniProt P08912).
T2 sequence (P08912 whole entry): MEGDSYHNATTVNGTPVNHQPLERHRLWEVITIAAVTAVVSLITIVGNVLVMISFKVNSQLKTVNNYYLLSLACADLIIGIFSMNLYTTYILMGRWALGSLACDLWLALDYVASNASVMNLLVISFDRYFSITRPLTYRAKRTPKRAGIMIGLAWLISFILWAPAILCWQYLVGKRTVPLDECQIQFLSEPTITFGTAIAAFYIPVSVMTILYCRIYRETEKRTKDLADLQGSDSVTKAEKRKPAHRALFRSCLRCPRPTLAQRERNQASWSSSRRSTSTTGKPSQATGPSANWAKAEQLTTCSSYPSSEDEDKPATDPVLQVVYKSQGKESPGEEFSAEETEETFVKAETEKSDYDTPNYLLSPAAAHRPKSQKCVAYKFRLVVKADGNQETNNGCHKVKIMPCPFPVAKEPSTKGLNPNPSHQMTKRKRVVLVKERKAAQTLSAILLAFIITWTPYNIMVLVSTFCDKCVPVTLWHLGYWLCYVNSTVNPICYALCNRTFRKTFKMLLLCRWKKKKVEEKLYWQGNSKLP
In words: Agonist activity at human muscarinic M5 expressed in CHO cells assessed as stimulation of calcium mobilization. Format: functional, cell-based.
Details: not given
As for `COc1ccccc1-c1ccc(CN2C(=O)C(=O)c3cc(OC(F)(F)F)ccc32)cc1`, the EC50 amounted to 3.9 µM.
On to `COc1ccc(CN2C(=O)C(=O)c3ccc(OC(F)(F)F)cc32)cc1`, for which the EC50 amounted to 5.7 µM.
Still for that read-out and setting: the figure for `O=C1C(=O)N(Cc2ccc(-c3ccc(Cl)nc3)cc2)c2ccc(OC(F)(F)F)cc21` is 4.8 µM.
In the case of `O=C1C(=O)N(Cc2ccc(-c3ccccc3)cc2)c2ccc(OC(F)(F)F)cc21`, the concentration for a half-maximal effect (EC50) was found to be 2.7 µM.
Still for that read-out and setting: then `O=C1C(=O)N(Cc2ccc(-c3ccsc3)cc2)c2ccc(OC(F)(F)F)cc21`, with 2.8 µM; and `COc1ccc(CN2C(=O)C(=O)c3cc(OC(F)(F)F)ccc32)cc1`, with 1.1 µM; and `O=C1C(=O)N(Cc2ccc(-c3ccccc3)cc2)c2cc(OC(F)(F)F)ccc21`, with 2.7 µM.
As for `O=C1C(=O)N(Cc2ccc(Oc3ccccc3)cc2)c2ccc(OC(F)(F)F)cc21`, the EC50 came to 1.9 µM.
Still for that read-out and setting: then `Cn1cc(-c2ccc(CN3C(=O)C(=O)c4cc(OC(F)(F)F)ccc43)cc2)cn1`, with 3.3 µM; and `O=C1C(=O)N(Cc2ccc(-c3ccc(F)nc3)cc2)c2ccc(OC(F)(F)F)cc21`, with 3.6 µM.

A further data set addresses Muscarinic acetylcholine receptor M3 (Homo sapiens) (UniProt P20309). Briefly: Agonist activity at human muscarinic M3 expressed in CHO cells assessed as stimulation of calcium mobilization at 30 uM. Format: functional, cell-based.
Details: not given
With `COc1ccc(CN2C(=O)C(=O)c3cc(OC(F)(F)F)ccc32)cc1`, the Activity was 30%.

A further data set has as its target T3, Muscarinic acetylcholine receptor M2 (Rattus norvegicus, UniProt P10980).
T3 sequence (P10980 whole entry): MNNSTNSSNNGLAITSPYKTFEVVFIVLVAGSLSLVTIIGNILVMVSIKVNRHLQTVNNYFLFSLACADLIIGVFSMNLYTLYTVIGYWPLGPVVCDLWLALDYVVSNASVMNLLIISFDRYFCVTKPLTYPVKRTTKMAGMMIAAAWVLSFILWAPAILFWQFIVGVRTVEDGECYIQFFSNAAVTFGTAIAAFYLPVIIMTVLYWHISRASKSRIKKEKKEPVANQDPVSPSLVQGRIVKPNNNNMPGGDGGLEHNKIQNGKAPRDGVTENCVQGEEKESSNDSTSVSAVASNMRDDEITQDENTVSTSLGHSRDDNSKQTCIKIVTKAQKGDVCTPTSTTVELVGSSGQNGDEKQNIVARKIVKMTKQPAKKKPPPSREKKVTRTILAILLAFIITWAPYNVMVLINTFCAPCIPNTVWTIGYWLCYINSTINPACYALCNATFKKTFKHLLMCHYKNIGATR
In words: Agonist activity at rat muscarinic M2 expressed in CHO cells assessed as stimulation of calcium mobilization. Format: functional, cell-based.
Details: not given
`O=C1C(=O)N(Cc2ccc(Br)cc2)c2ccccc21`: the concentration for a half-maximal effect (EC50) is > 30 µM.
`COc1ccc(CN2C(=O)C(=O)c3cc(OC(F)(F)F)ccc32)cc1`: the half-maximal effective concentration (EC50) was > 30 µM.

The next data set has as its target T4, Muscarinic acetylcholine receptor M1 (Rattus norvegicus) (UniProt P08482).
T4 sequence (whole entry): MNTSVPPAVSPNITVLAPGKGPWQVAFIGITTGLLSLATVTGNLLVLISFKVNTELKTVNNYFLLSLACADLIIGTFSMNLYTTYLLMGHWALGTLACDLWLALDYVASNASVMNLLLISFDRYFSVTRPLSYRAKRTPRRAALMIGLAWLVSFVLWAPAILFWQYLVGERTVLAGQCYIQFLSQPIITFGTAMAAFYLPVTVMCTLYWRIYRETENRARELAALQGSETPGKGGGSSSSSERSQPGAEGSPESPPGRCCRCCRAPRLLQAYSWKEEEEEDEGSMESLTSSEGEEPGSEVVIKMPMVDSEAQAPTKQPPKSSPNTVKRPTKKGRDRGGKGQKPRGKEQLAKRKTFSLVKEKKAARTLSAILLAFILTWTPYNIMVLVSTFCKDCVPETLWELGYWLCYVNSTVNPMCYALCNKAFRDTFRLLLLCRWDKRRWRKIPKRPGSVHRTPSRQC
In words: Agonist activity at rat muscarinic M1 expressed in CHO cells assessed as stimulation of calcium mobilization at 30 uM. Format: functional, cell-based.
Details: not given
`COc1ccc(CN2C(=O)C(=O)c3cc(OC(F)(F)F)ccc32)cc1`: the Activity stood at 30%.

The target of another data set is T5, Muscarinic acetylcholine receptor M5 (Homo sapiens) (UniProt P08912).
T5 sequence (whole entry): T2 sequence (P08912 whole entry)
Briefly: Agonist activity at human muscarinic M5 expressed in CHO cells assessed as stimulation of calcium mobilization relative to acetyle choline. Format: functional, cell-based. Also on record: concentration or dose not given beside the values.
Details: not given
With `COc1ccccc1-c1ccc(CN2C(=O)C(=O)c3cc(OC(F)(F)F)ccc32)cc1`, the Activity came to 70%.
On the same count and under the same terms, then `O=C1C(=O)N(Cc2ccc(-c3ccc(Cl)nc3)cc2)c2ccc(OC(F)(F)F)cc21`, with 85%.
In the case of `O=C1C(=O)N(Cc2ccc(-c3ccccc3)cc2)c2ccc(OC(F)(F)F)cc21`, the Activity stood at 85%.
`O=C1C(=O)N(Cc2ccc(-c3ccsc3)cc2)c2ccc(OC(F)(F)F)cc21`: the Activity amounted to 85%.
On to `O=C1C(=O)N(Cc2ccc(Oc3ccccc3)cc2)c2ccc(OC(F)(F)F)cc21`, for which the Activity was found to be 75%.
Same read-out and setting: then `Cn1cc(-c2ccc(CN3C(=O)C(=O)c4cc(OC(F)(F)F)ccc43)cc2)cn1`, with 85%; and `O=C1C(=O)N(Cc2ccc(-c3ccc(F)nc3)cc2)c2ccc(OC(F)(F)F)cc21`, with 80%.

Tested on in another data set: not listed separately
Briefly: Ratio of AUC in rat brain to AUC in rat plasma. Format: ADME, tissue-based. As to conditions: read-out: Ratio AUC.
As for `COc1ccccc1-c1ccc(CN2C(=O)C(=O)c3cc(OC(F)(F)F)ccc32)cc1`, the Kp was 0.25.
On the same count and under the same terms, then `O=C1C(=O)N(Cc2ccc(C(F)(F)F)cc2)c2c(Cl)cccc21`, with 0.25.
Same read-out and setting: the figure for `O=C1C(=O)N(Cc2ccc(-c3ccc(Cl)nc3)cc2)c2ccc(OC(F)(F)F)cc21` is 0.25.
`O=C1C(=O)N(Cc2ccc(Br)cc2)c2ccccc21`: the Kp was 0.25.
The same measure, in the same setting: then `O=C1C(=O)N(Cc2ccc(-c3ccccc3)cc2)c2ccc(OC(F)(F)F)cc21`, with 0.25; and `O=C1C(=O)N(Cc2ccc(-c3ccsc3)cc2)c2ccc(OC(F)(F)F)cc21`, with 0.25.
With `COc1ccc(CN2C(=O)C(=O)c3cc(OC(F)(F)F)ccc32)cc1`, the Kp came to 0.25.
The same measure, in the same setting: the figure for `Cn1cc(-c2ccc(CN3C(=O)C(=O)c4cc(OC(F)(F)F)ccc43)cc2)cn1` is 0.25; for `O=C1C(=O)N(Cc2ccc(-c3ccc(F)nc3)cc2)c2ccc(OC(F)(F)F)cc21` it is 0.25.

For a further data set, the target named is T6, Muscarinic acetylcholine receptor M1 (Rattus norvegicus, UniProt P08482).
T6 sequence (P08482 whole entry): T4 sequence (whole entry)
Briefly: Agonist activity at rat muscarinic M1 expressed in CHO cells assessed as stimulation of calcium mobilization.
Details: not given
Format: functional, cell-based.
Turning to `COc1ccccc1-c1ccc(CN2C(=O)C(=O)c3cc(OC(F)(F)F)ccc32)cc1`, the concentration giving a half-maximal response (EC50) was > 30 µM.
Still for that read-out and setting: then `O=C1C(=O)N(Cc2ccc(-c3ccc(Cl)nc3)cc2)c2ccc(OC(F)(F)F)cc21`, with > 30 µM; and `O=C1C(=O)N(Cc2ccc(-c3ccccc3)cc2)c2ccc(OC(F)(F)F)cc21`, with > 30 µM; and `O=C1C(=O)N(Cc2ccc(-c3ccsc3)cc2)c2ccc(OC(F)(F)F)cc21`, with > 30 µM.
Still for that read-out and setting: then `Cn1cc(-c2ccc(CN3C(=O)C(=O)c4cc(OC(F)(F)F)ccc43)cc2)cn1`, with > 30 µM; and `O=C1C(=O)N(Cc2ccc(-c3ccc(F)nc3)cc2)c2ccc(OC(F)(F)F)cc21`, with > 30 µM.
